Four compounds from US20250197425A1, “2,6,9-TRISUBSTITUTED PURINES” (ASTRAZENECA AB, priority 2022, published 2025) can be followed below.

In assay [1] the target is 379 non-CDK kinase (or non-CDK kinase-complex) targets. Kind of assay: Kinase profiling (SelectScreen, ThermoFisher). The assay is classed as biochemical. As to conditions: compared with Compound 6. An excerpt: Test compounds were profiled against a broad panel of kinases at ThermoFisher Scientific using the SelectScreen Kinase Profiling Services. Each kinase assay used one of the following assay technology protocols: • 1) Z-LYTE™ Screening Protocol and Assay Conditions (Revised 23 Jan. 2018 version) available at http://assets.thermofisher.com/TFS-Assets/BID/Methods-&-Protocols/20180123_SSBK_Customer_Protocol_and_Assay_Conditions.pdf; • 2) Adapta™ Screening Protocol and Assay Conditions (Revised 23 Jan. 2018 version) available at http://assets.thermofisher.com/TFS-Assets/BID/Methods-&-Protocols/20180123_SSBK_Adapta_Customer_Protocol_and_Assay_Conditions.pdf; or • 3) LanthaScreen™ Eu Kinase Binding Assay Screening Protocol and Assay Conditions (Revised 23 Jan. 2018 version) available at http://assets.thermofisher.com/TFS-Assets/BID/Methods-&-Protocols/20180123_SSBK_LanthaScreen_Binding_Customer_Protocol_and_Assay_Co nditions.pdf.

Assay [2] has as its system POLR2A Ser2 phosphorylation (CDK9). Kind of assay: POLR2A Ser2 phosphorylation imaging assay in MCF-7 cells. The note with it: Homo sapiens, MCF7, 2 h, MCF-7 cells, 2 hours; read-out: POLR2A Ser2 phosphorylation IC50. The assay is classed as cell-based. In short, it runs like this: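 MCF-7 cells were fixed, permeabilised and immunostained for POLR2A phospho-Ser2, then imaged by high-content microscopy. Levels were normalised to controls and IC50 values derived.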

Assay [3] relates to NPM phosphorylation (Thr199, CDK2-cyclin E complex). Briefly: NPM phosphorylation imaging assay in MCF-7 cells. The class given is cell-based. The note with it: Homo sapiens, MCF7, 2 h, 4N DNA cells. In short, it runs like this: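 MCF-7 cells were fixed, permeabilised and immunostained, then imaged for phospho-NPM (Thr199), a CDK2-cyclin E site. Analysis was gated on 4N-DNA cells by Hoechst staining. Signals were normalised to controls and fitted for IC50.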

The next assay deals with CDK4:CCND1 (Homo sapiens (Human), UniProt P11802). Briefly: NanoBRET assay in MCF-7 cells, CDK4. The class given is cell-based. The note with it: NanoBRET, transfected MCF-7 cells, 2 hours; n = 1 or average; read-out: CDK4 IC50. In short, it runs like this:
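Transiently transfected MCF-7 cells expressing CDK1:CCNB1 or CDK4:CCND1 were treated with compound plus tracer (CDK1: Tracer K-9, 400 μM stock; CDK4: Tracer K-7, 100 μM stock) for 2 h at 37 °C.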

For a further assay, the system named is MCF-7 cells. Kind of assay: Cellular proliferation EdU assay, MCF-7. The class given is cell-based. As to conditions: Homo sapiens, MCF7, 48 h, EdU assay, two days; read-out: MCF-7 IC50. Put shortly: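 MCF-7 (800 cells/well) and OVCAR3 (1200 cells/well) in RPMI with 10% FBS exposed to compounds for two days at 37 °C.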
A further assay deals with SKOV3 cells. Briefly: Cell proliferation CyQUANT assay, SKOV3. As to conditions: Homo sapiens, SK-OV-3, 168 h; CyQUANT cell counts, 7 days. The assay is classed as cell-based.

CDK4:CCND1, sequence (P11802 whole entry): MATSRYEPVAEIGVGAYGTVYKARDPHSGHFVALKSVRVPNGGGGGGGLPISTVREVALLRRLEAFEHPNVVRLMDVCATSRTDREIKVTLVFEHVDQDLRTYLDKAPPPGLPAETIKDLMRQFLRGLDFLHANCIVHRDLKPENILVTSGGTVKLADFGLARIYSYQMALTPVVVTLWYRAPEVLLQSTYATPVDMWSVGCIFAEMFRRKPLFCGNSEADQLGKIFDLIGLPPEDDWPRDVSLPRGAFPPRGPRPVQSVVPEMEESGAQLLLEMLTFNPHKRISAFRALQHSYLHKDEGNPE
CDK4:CCND1, sequence (P24385 whole entry partner): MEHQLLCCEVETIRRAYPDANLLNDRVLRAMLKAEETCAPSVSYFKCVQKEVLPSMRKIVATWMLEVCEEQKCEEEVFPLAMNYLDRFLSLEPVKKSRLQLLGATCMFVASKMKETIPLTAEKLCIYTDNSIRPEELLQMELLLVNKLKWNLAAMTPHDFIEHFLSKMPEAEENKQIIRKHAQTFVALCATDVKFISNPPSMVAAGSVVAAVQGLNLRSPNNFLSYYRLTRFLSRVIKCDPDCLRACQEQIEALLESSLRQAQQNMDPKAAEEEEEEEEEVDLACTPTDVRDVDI

For orientation: IC50 means the midpoint of a concentration-inhibition curve. As to `CCn1cnc2c(N[C@H]3CCN(S(=O)(=O)NC)C3)nc(-c3cccc4c3CC[C@]4(C)O)nc21` (relative stereo) [Example 3, (S)-3-((9-ethyl-2-((R*)-1-hydroxy-1-methyl-2,3-dihydro-1H-inden-4-yl)-9H-purin-6-yl)amino)-N-methylpyrrolidine-1-sulfonamide], the kinase inhibition profile entry in assay [1] is “broadly similar kinase inhibition profiles to Compound 6”. The IC50 in assay [2] is 6500 nM; in assay [3], 233 nM; on CDK4:CCND1, 12800 nM; with MCF-7 cells, 969 nM.

For the compound `CCNS(=O)(=O)N1CC[C@H](Nc2nc(N[C@@H](CO)C3CC3)nc3c2ncn3C)C1` [Example 19, (S)-3-((2-(((R)-1-cyclopropyl-2-hydroxyethyl)amino)-9-methyl-9H-purin-6-yl)amino)-N-ethylpyrrolidine-1-sulfonamide], the kinase inhibition profile result in assay [1] is reported as “broadly similar kinase inhibition profiles to Compound 6”. Further, the IC50 came out at 17600 nM in assay [2]; 4040 nM in the assay on SKOV3 cells; 133 nM in assay [3]; 5800 nM at CDK4:CCND1; 538 nM with MCF-7 cells.

On to `CCNS(=O)(=O)N1CC[C@H](Nc2nc(N[C@@H](CC)[C@@H](C)O)nc3c2ncn3C)C1` [Example 53, (S)—N-ethyl-3-((2-(((2R,3S)-2-hydroxypentan-3-yl)amino)-9-methyl-9H-purin-6-yl)amino)pyrrolidine-1-sulfonamide], for which the kinase inhibition profile result in assay [1] was “broadly similar kinase inhibition profiles to Compound 6”. Moreover, the IC50 in assay [2] was > 30000 nM; with SKOV3 cells, 10700 nM; in assay [3], 241 nM; on CDK4:CCND1, > 29700 nM; in the assay with MCF-7 cells, 1430 nM.

Take `CCn1cnc2c(N[C@@H]3CN(S(=O)(=O)c4ncc[nH]4)C[C@H]3F)nc(N[C@@H](CO)C3CC3)nc21` (relative stereo) [Example 17, (R)-2-((6-(((3R*,4R*)-1-((1H-imidazol-2-yl)sulfonyl)-4-fluoropyrrolidin-3-yl)amino)-9-ethyl-9H-purin-2-yl)amino)-2-cyclopropylethan-1-ol]: the IC50 in assay [2] came out at 3900 nM; with SKOV3 cells it was 1160 nM; in assay [3] it was 11 nM; on CDK4:CCND1 it was 1200 nM.
